Laboratory results from US9469615B2, “Quinoxalines and AZA-quinoxalines as CRTH2 receptor modulators” (Merck Sharp & Dohme Corp., priority 2010, dated 2016).

These molecules were tested against T1, hCRTH2 (Homo sapiens, UniProt Q9Y5Y4) (assay: Radioligand binding assay ([3H]PGD2 competition, HEK-hCRTH2 membranes)). Conditions: [3H]PGD2 binding, rated A-E (Table A).
T1 construct: expressed in transfected cells; host or cells: HEK (human embryonic kidney) cells expressing hCRTH2; membrane preparation
T1 sequence (Q9Y5Y4 1-395): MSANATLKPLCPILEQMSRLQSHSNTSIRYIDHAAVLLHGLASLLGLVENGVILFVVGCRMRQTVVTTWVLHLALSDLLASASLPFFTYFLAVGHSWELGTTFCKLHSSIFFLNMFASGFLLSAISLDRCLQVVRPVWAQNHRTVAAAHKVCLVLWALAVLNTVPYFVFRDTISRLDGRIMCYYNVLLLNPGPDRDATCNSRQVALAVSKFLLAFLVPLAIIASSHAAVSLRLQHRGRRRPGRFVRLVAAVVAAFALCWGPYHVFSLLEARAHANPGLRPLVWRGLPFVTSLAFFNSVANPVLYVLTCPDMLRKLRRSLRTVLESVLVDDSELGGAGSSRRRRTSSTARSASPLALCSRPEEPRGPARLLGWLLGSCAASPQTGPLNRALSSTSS
Summary of the method: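 Displacement of 3.0 nM [3H]PGD2 from human CRTH2 expressed in HEK membranes was measured at room temperature over 60 min. Unlabelled PGD2 at 10 μM gave non-specific binding.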

| Ki [nM] | Compound |
| --- | --- |
| 0.1 to 2 | CC(NC(=O)c1ccc2nc(-c3ccc(C(F)(F)F)cc3)c(CCCCC(=O)O)nc2c1)c1ccc(-c2ccccc2)cc1 (racemic) [4E, 7-[[(1-[1,1′-biphenyl]-4-ylethyl)amino]carbonyl]-3-[4-(trifluoromethyl)-phenyl]-2-quinoxaline-pentanoic acid] |
| 0.1 to 2 | CCC(=O)c1ccc2nc(-c3ccccc3)c(CCCCC(=O)O)nc2c1 [compound 6, 7-(1-oxopropyl)-3-phenyl-2-quinoxalinepentanoic acid] |
| 2.1 to 20 | C[C@H](NC(=O)c1ccc2nc(-c3ccc(Cl)cc3)c(CCc3cccc(CC(=O)O)c3)nc2c1)c1ccc(F)cc1 [19H, 3-[2-[3-(4-chlorophenyl)-7-[[[1(S)-(4-fluorophenyl)ethyl]amino]carbonyl]-2-quinoxalinyl]ethyl] benzeneacetic acid] |
| 201 to 700 | O=C(O)Cc1cccc(CCc2nc3cc(C(=O)N[C@@H](CCO)c4ccccc4)ccc3nc2-c2ccc(F)cc2)c1 [compound 197, 3-[2-[3-(4-fluorophenyl)-7-[[(3-hydroxy-1(S)-phenylpropyl)amino]carbonyl]-2-quinoxalinyl]ethyl] benzeneacetic acid] |
| 20.1 to 200 | O=C(NCc1cccc(Cl)c1)c1ccc2nc(-c3ccccc3)c(CCCCc3nnn[nH]3)nc2c1 [22D, N-[(3-chlorophenyl)methyl]-2-phenyl-3-[4-(1H-tetrazol-5-yl)butyl]-6-quinoxalinecarboxamide] |
| 0.1 to 2 | O=C(O)CCCCc1nc2cc(C(=O)N3CCN(c4ccccc4)CC3)cnc2nc1-c1ccccc1 [14G, 5-{3-phenyl-7-[(4-phenylpiperazin-1-yl)carbonyl]pyrido [2,3-b]pyrazin-2-yl}pentanoic acid] |
| 0.1 to 2 | CC(CCc1nc2cc(C(=O)N3CC(c4ccccc4)C3)ccc2nc1-c1ccc(Cl)cc1)CC(=O)O (stereo not drawn) [17F, 3-(4-chlorophenyl)-beta-methyl-7-[(3-phenyl-1-azetidinyl)carbonyl]-2-quinoxalinepentanoic acid] |
| 0.1 to 2 | O=C(O)CCCCc1nc2cc(C(=O)c3ccccc3)ccc2nc1-c1ccc(F)cc1 [5G] |
| 0.1 to 2 | CC(NC(=O)c1ccc2nc(-c3ccc(Cl)cc3)c(CCCCC(=O)O)nc2c1)c1ccccn1 (stereo in doubt) [16AA, 3-(4-chlorophenyl)-7-[[[1(S)-(2-pyridinyl)ethyl]amino]carbonyl]-2-quinoxalinepentanoic acid] |
| 2.1 to 20 | O=C(O)C1CC(Cc2nc3cc(C(=O)N4CCC(c5ccccc5)CC4)ccc3nc2-c2ccc(Cl)cc2)C1 (stereo not shown) [compound 30, 3-((3-(4-chlorophenyl)-7-(4-phenylpiperidine-1-carbonyl)quinoxalin-2-yl)methyl)cyclobutanecarboxylic acid] |
| 0.1 to 2 | O=C(O)CCCCc1nc2cc(C(=O)NCc3ccc(F)cc3)ccc2nc1-c1ccc(Cl)cc1 [16R, 3-(4-chlorophenyl)-7-[[[(4-fluorophenyl)methyl]amino]carbonyl]-2-quinoxalinepentanoic acid] |
| 2.1 to 20 | CC(NC(=O)c1ccc2nc(-c3ccc(C(F)(F)F)cc3)c(CCCCC(=O)O)nc2c1)c1ccccn1 (stereo not shown) [3AB, 7-[[[1-(2-pyridinyl)ethyl]-amino]carbonyl]-3-[4-(trifluoromethyl)phenyl]-2-quinoxalinepentanoic acid] |
| 0.1 to 2 | O=C(O)CCCCc1nc2cc(C(=O)N3CCC(c4ccccc4)CC3)ccc2nc1-c1ccc(C(F)(F)F)cc1Cl [26AA, 3-[2-chloro-4-(trifluoromethyl)phenyl]-7-[(4-phenyl-1-piperidinyl)carbonyl]-2-quinoxalinepentanoic acid] |
| 2.1 to 20 | CC(CCCc1nc2cc(C(=O)NCc3ccc(F)cc3)ccc2nc1-c1ccc(Cl)cc1)C(=O)O (stereo not drawn) [compound 161, 3-(4-chlorophenyl)-7-[[[(4-fluorophenyl)methyl]amino]carbonyl]-alpha-methyl-2-quinoxalinepentanoic acid] |
| 2.1 to 20 | O=C(O)CCCCc1nc2cc(C(=O)N3CCCCC3c3ccccc3)ccc2nc1-c1ccccc1 (stereo not shown) [15AJ, 5-{3-phenyl-7-[(2-phenylpiperidin-1-yl)carbonyl]quinoxalin-2-yl}pentanoic acid] |
| 201 to 700 | O=C(O)CCCCc1nc2cc(NC(=O)Cc3ccc(C(F)(F)F)cc3)ccc2nc1-c1ccccc1 [11F, 5-[3-phenyl-7-({[4-(trifluoromethyl)phenyl]acetyl}amino)quinoxalin-2-yl]pentanoic acid] |

Same assay, conditions: [3H]PGD2 binding, values in text

| Ki [nM] | Compound |
| --- | --- |
| 464 | O=C(O)Cc1cccc(CCc2nc3cc(C(=O)N[C@@H](CCO)c4ccccc4)ccc3nc2-c2ccc(F)cc2)c1 [compound 197, 3-[2-[3-(4-fluorophenyl)-7-[[(3-hydroxy-1(S)-phenylpropyl)amino]carbonyl]-2-quinoxalinyl]ethyl] benzeneacetic acid] |
| 223 | O=C(O)CCCCc1nc2cc(NC(=O)Cc3ccc(C(F)(F)F)cc3)ccc2nc1-c1ccccc1 [11F, 5-[3-phenyl-7-({[4-(trifluoromethyl)phenyl]acetyl}amino)quinoxalin-2-yl]pentanoic acid] |

Same assay, conditions: [3H]PGD2 competition, Table B

| Ki [nM] | Compound |
| --- | --- |
| 2.1 to 20 | N#Cc1cccnc1N1CCN(C(=O)c2ccc3nc(-c4ccc(F)cc4)c(CCCCC(=O)O)nc3c2)CC1 [compound 358, 5-(7-(4-(3-cyanopyridin-2-yl)piperazine-l-carbonyl)-3-(4-fluorophenyl)quinoxalin-2-yl)pentanoic acid] |
| 0.1 to 2 | C[C@@H](NC(=O)c1ccc2nc(-c3ccc(Cl)cc3)c(CCCCC(=O)O)nc2c1)c1ccc(F)cn1 [compound 434, (R)-5-(3-(4-chlorophenyl)-7-((1-(5-fluoropyridin-2-yl)ethyl)carbamoyl)quinoxalin-2-yl)pentanoic acid] |
| 2.1 to 20 | CN1CCN(C(=O)c2ccc3nc(-c4ccc(Cl)cc4)c(CCCCC(=O)O)nc3c2)CC1c1ccccc1 (stereo not shown) [compound 674, 5-(3-(4-chlorophenyl)-7-(4-methyl-3-phenylpiperazine-1-carbonyl)quinoxalin-2-yl)pentanoic acid] |
| 0.1 to 2 | CS(=O)(=O)N1CCC(NC(=O)c2ccc3nc(-c4ccc(Cl)cc4)c(CCCCC(=O)O)nc3c2)c2ccccc21 (stereo not shown) [compound 605, 5-(3-(4-chlorophenyl)-7-((1-(methylsulfonyl)-1,2,3,4-tetrahydroquinolin-4-yl)carbamoyl)quinoxalin-2-yl)pentanoic acid] |
| 20.1 to 200 | C[C@@H](CCc1nc2cc(C(=O)N3CCN(c4ccccc4)CC3)ccc2nc1-c1ccccc1)CC(=O)O [compound 289, (S)-3-methyl-5-(3-phenyl-7-(4-phenylpiperazine-1-carbonyl)quinoxalin-2-yl)pentanoic acid] |
| 20.1 to 200 | C[C@@H](CCc1nc2cc(C(=O)N[C@H](C)c3ccc(F)cc3)ccc2nc1-c1ccccc1)CC(=O)O [compound 287, (S)-5-(7-(((R)-1-(4-fluorophenyl)ethyl)carbamoyl)-3-phenylquinoxalin-2-yl)-3-methylpentanoic acid] |
| 20.1 to 200 | O=C(O)Cc1cccc(CCCc2nc3cc(C(=O)N4CCN(c5ccccc5)CC4)ccc3nc2-c2ccc(F)cc2)c1 [compound 272, 2-(3-(3-(3-(4-fluorophenyl)-7-(4-phenylpiperazine-1-carbonyl)quinoxalin-2-yl)propyl)phenyl)acetic acid] |
| 20.1 to 200 | CN(Cc1ccc(F)cc1)C(=O)c1ccc2nc(-c3ccc(Cl)cc3)c(CCCc3cccc(CC(=O)O)c3)nc2c1 [compound 544, 2-(3-(3-(3-(4-chlorophenyl)-7-((4-fluorobenzyl) (methyl)carbamoyl)quinoxalin-2-yl)propyl)phenyl)acetic acid] |
| 20.1 to 200 | O=C(O)CCCCc1nc2cc(C(=O)N3CCN(c4nccs4)CC3)ccc2nc1-c1ccccc1 [compound 306, 5-(3-phenyl-7-(4-(thiazol-2-yl)piperazine-1-carbonyl)quinoxalin-2-yl)pentanoic acid] |
| 2.1 to 20 | C[C@@H]1CN(c2ccc(Cl)cc2)CCN1C(=O)c1ccc2nc(-c3ccc(F)cc3)c(CCCCC(=O)O)nc2c1 [compound 540, (R)-5-(7-(4-(4-chlorophenyl)-2-methylpiperazine-1-carbonyl)-3-(4-fluorophenyl)quinoxalin-2-yl)pentanoic acid] |
| 2.1 to 20 | C[C@H]1CN(c2ccc(F)cc2)CCN1C(=O)c1ccc2nc(-c3ccc(Cl)cc3)c(CCCCC(=O)O)nc2c1 [compound 490, (S)-5-(3-(4-chlorophenyl)-7-(4-(4-fluorophenyl)-2-methylpiperazine-1-carbonyl)quinoxalin-2-yl)pentanoic acid] |
| 2.1 to 20 | O=C(O)CCCCc1nc2cc(C(=O)NC3C(=O)Nc4ccccc43)ccc2nc1-c1ccc(Cl)cc1 (stereo not shown) [compound 584, 5-(3-(4-chlorophenyl)-7-((2-oxoindolin-3-yl)carbamoyl)quinoxalin-2-yl)pentanoic acid] |
| 20.1 to 200 | O=C(O)CCCCc1nc2cc(C(=O)N3CCn4cc(C(F)(F)F)nc4C3)ccc2nc1-c1ccc(Cl)cc1 [compound 668, 5-(3-(4-chlorophertyl)-7-(2-(trifluoromethyl)-5,6,7,8-tetrahydroimidazo[1,2-a]pyrazine-7-carbonyl)quinoxalin-2-yl)pentanoic acid] |
| 2.1 to 20 | CN(C(=O)c1ccc2nc(-c3ccccc3)c(CCCCC(=O)O)nc2c1)[C@@H]1CCCc2cc(F)ccc21 [compound 379, (R)-5-(7-((6-fluoro-1,2,3,4-tetrahydronaphthalen-1-yl)(methyl)carbamoyl)-3-phenylquinoxalin-2-yl)pentanoic acid] |
| 2.1 to 20 | CC(C)(NC(=O)c1ccc2nc(-c3ccc(Cl)cc3)c(CCCCC(=O)O)nc2c1)c1ccc(F)cc1 [compound 693, 5-(3-(4-chlorophenyl)-7-((2-(4-fluorophenyl)propan-2-yl)carbamoyl)quinoxalin-2-yl)pentanoic acid] |
| 2.1 to 20 | CC1(C)CC[C@H](NC(=O)c2ccc3nc(-c4ccccc4)c(CCCCC(=O)O)nc3c2)c2ccccc21 [compound 721, (S)-5-(7-((4,4-dimethyl-1,2,3,4-tetrahydronaphthalen-1-yl)carbamoyl)-3-phenylquinoxalin-2-yl)pentanoic acid] |
